# Where a SMILES comes first, the peptide text is derived from it. Bridges are numbered along the chain shown (N, C = ends). [ ]: non-standard residue; d: D form. R8 = C=CCCCCCC[C@@](C)(N)C(=O)O; S5 = C=CCCC[C@](C)(N)C(=O)O
# Key:
# SUM149-generated tumors = assay: Inflammatory breast cancer SUM149 mouse model; format: in vivo, SCID mice
# Procedure: 26 female SCID mice were injected with 0.1 mL of a cell solution containing 3.84 × 10^6 SUM149 cells resuspended in Trevigen and sterile saline at site L4. Mice were incubated for 35 days to allow tumor growth prior to injection of SAH5-EJ1, and randomized into 3 groups, N = 8 mice/group. Injections of 5 µg/g or 0.5 µg/g in 0.1 mL volumes of SAH5-EJ1 were administered via tail vein every 3 days for 31 days until the administration route changed to intraperitoneal injections through the conclusion of the study. Control injections of equal volumes of sterile water were also performed. All animals were maintained as outlined by University of Arizona Institutional Animal Care and Use Committee (IACUC) by the Experimental Mouse Shared Resource (EMSR).
# Fig. 4 SAH5-EJ1 effectively treats models of basal and inflammatory breast cancers while increasing survival. a Changes in tumor burden in breast cancer PDX mouse model TM01278 with various concentrations of intravenous SAH5-EJ1. Control represents water as a vehicle control. *p < 0.05 (Control vs 1 µg/g); **p < 0.01 (Control vs 1 µg/g and vs 10 µg/g). N = 6 for each condition. b Kaplan–Meier curve of breast PDX mouse model treated with control (blue) or either 1 or 10 µg/g SAH5-EJ1 (green and red, respectively) (red asterisks indicate time point at which mice could no longer receive injections due to site toxicity). Data shown represent mean. N = 6 for all groups. c Cell viability assay performed in SUM149 cells over 3 days comparing treatment with Sapitinib (blue) to SAH5-EJ1 (red) and SAH5-CP (grey). Solid lines represent 24 h; dashed lines represent 72 h. Data shown represent mean ± percent difference of assays performed in triplicate. d Kaplan–Meier curve of inflammatory breast cancer SUM149-injected mouse model treated with injected control (water) (blue) or either 0.5 or 5 µg/g SAH5-EJ1 (green and red, respectively). Data shown represent mean. N = 8 for all groups. e Changes in tumor burden in SUM149-generated tumors with various doses of SAH5-EJ1. Control represents water (blue). […]
# [1] = 28-day toxicity study: survival, NOAEL; format: in vivo, CD-1 mice; settings: for Survival (%): after 28 days, N = 10
# Procedure: Toxicology was performed by IITRI. The study was conducted in compliance with the US Food and Drug Administration (FDA) good laboratory practice (GLP) Regulations (Code of Federal Regulations Title 21 Part 58) to evaluate the toxicokinetics, local tolerability, immunogenicity, and potential toxicity of SAH5-EJ1 following three times per week intravenous (IV) dosing for 28 days in mice. Male and female CD-1 IGS [Crl:CD1(ICR)] mice (135 per sex) were received from Wilmington, MA-based Charles River Laboratories, Inc.’s Kingston facility (Stone Ridge, NY).
# Finally, we confirmed the maximum tolerated dose of SAH5-EJ1, evaluating 5, 10, and 15 mg/kg body weight dosages (Table S3, Additional file 1). […] At 15 mg/kg, one male animal died from unknown causes and was classified as an accidental death. Therefore, 10 mg/kg was considered the no-observed-adverse-effect level (NOAEL). […] Increased spleen weights observed in 10 mg/kg and 15 mg/kg-treated mice most likely resulted from extramedullary hematopoiesis, also known as “blueberry muffin baby syndrome”, an asymptomatic event in which red blood cells accumulate outside of the bone marrow (Table S5, Additional file 1). Increased spleen size is likely due to an increase red blood cell production associated with IV injection-affiliated cell death. Clinical chemistry panels indicate that despite the high concentration of SAH5-EJ1 in the liver, liver function is not inhibited, with normal ranges of ALT/AST and total bilirubin (Table 2).
# Male (M) and Female (F) mice. Not including mice for recovery study (additional 10 mice/sex), toxicokinetics (56 mice/sex), or immunogenicity (18 mice/sex). Accidental male deaths on day 27/28 at 5mg/kg dosage and day 22/28 at 15 mg/kg dosage. Female death on day 3/28 at 15mg/kg dosage with hypoactivity noted on day 1.
compound,measurement,setting,value
CC[C@H](C)[C@H](NC(=O)[C@H](Cc1c[nH]cn1)NC(=O)[C@H](CCCNC(=N)N)NC(=O)[C@H](CCCNC(=N)N)NC(=O)[C@H](CCCNC(=N)N)NC(=O)[C@H](CCSC)NC(=O)[C@H](Cc1ccccc1)NC(=O)[C@H](C)NC(=O)[C@H](CCCNC(=N)N)NC(=O)[C@H](C)NC(=O)[C@H](CCC(N)=O)NC(=O)[C@H](CCCNC(=N)N)NC(=O)[C@H](C)NC(=O)[C@H](C)NC(=O)[C@H](C)NC(=O)[C@H](CCCNC(=N)N)NC(=O)[C@H](C)NC(=O)[C@@H](N)Cc1ccc(O)cc1)C(=O)N[C@H](C(=O)N[C@@H](CCCNC(=N)N)C(=O)N[C@@H](CCCCN)C(=O)N[C@@H](CCCNC(=N)N)C(=O)N[C@]1(C)CCCCCCC=CCCC[C@@](C)(C(=O)N[C@@H](CCCNC(=N)N)C(=O)N[C@@H](CCC(=O)O)C(N)=O)NC(=O)[C@H](CCC(N)=O)NC(=O)[C@H](CC(C)C)NC(=O)[C@H](CC(C)C)NC(=O)[C@H](CCCNC(=N)N)NC(=O)[C@H](CCCNC(=N)N)NC(=O)[C@H](CC(C)C)NC1=O)C(C)C [SAH5-EJ1] (H-YARAAARQARAFMRRRHIVRKR[R8]LRRLLQ[S5]RE-NH2; staple 23-30),time of treatment until all animals showed no residual tumor burden,"SUM149-generated tumors; 0.5 or 5 µg/g every 3 days, IV then IP",≤ 55 days
same,treated mice displaying tumor regrowth,SUM149-generated tumors; 0.5 or 5 µg/g groups together,9/16
same,treated mice remaining at the end of the study,"SUM149-generated tumors; 0.5 or 5 µg/g, treatment up to 203 days",more than 40%
same,systemic or target organ toxicity,"[1]; 5, 10 and 15 mg/kg IV, 28-day repeat toxicity study",no evidence of any systemic or target organ toxicity
same,NOAEL at 672 h,"[1]; both sexes, CD-1, mouse, in vivo, IV three times per week, 28 days, mice, read-out: no-observed-adverse-effect level (NOAEL)",10 mg/kg
same,Survival (%),"[1]; female, 5 mg/kg",100%
same,Survival (%),"[1]; female, 10 mg/kg",100%
same,Survival (%),"[1]; female, 15 mg/kg",90%
same,Survival (%),"[1]; male, 5 mg/kg",90%
same,Survival (%),"[1]; male, 10 mg/kg",100%
same,Survival (%),"[1]; male, 15 mg/kg",90%

# Source: publication PMC6582486, “Stapled EGFR peptide reduces inflammatory breast cancer and inhibits additional HER-driven models of cancer” (Journal of Translational Medicine, 2019)
